ChEMBL document CHEMBL1144272, “Generation of a new class of hNK(2) receptor ligands using the 'fragment approach'” (Bioorg Med Chem Lett, 2005)

Biological target: T1, Substance-K receptor (Homo sapiens, UniProt P21452)
T1 sequence (P21452 whole entry): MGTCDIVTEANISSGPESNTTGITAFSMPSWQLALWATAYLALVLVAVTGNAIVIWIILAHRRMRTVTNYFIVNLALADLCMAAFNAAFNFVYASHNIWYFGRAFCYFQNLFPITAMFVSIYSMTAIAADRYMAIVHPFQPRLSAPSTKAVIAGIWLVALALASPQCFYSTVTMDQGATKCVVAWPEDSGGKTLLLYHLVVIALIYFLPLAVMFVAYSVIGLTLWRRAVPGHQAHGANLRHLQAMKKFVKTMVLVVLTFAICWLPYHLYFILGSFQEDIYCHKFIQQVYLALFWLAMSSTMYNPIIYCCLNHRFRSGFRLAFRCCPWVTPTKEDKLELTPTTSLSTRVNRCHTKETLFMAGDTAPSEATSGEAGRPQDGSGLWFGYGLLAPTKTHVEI
Assay: Binding affinity for human tachykinin receptor 2 was measured by using [125I]NKA as radio ligand

SMILES	Ki
CC(C)(Nc1ccccc1)C(=O)N[C@H](Cc1ccccc1)C(=O)NCCCN1CCOCC1	> 3 µM
CN(C(=O)N[C@H](Cc1ccccc1)C(=O)NCCCN1CCOCC1)c1cccc(Oc2ccccc2)c1	> 3 µM
CC(C)(C)c1ccc(Oc2ccc(NC(=O)N[C@@H](Cc3ccccc3)C(=O)NCCCN3CCOCC3)cc2)cc1	0.05 µM
CN(Cc1ccccc1)C(=O)N[C@@H](Cc1ccccc1)C(=O)NCCCN1CCOCC1	2 µM
CC(C)(Oc1ccc(F)cc1)C(=O)N[C@H](Cc1ccccc1)C(=O)NCCCN1CCOCC1	> 1 µM
CC(C)c1ccc(OC(C)(C)C(=O)N[C@H](Cc2ccccc2)C(=O)NCCCN2CCOCC2)cc1	> 1 µM
O=C(Nc1ccc(Oc2ccccc2)cc1)N[C@H](Cc1ccccc1)C(=O)NCCCN1CCOCC1	0.5 µM
O=C(N[C@@H](Cc1ccccc1)C(=O)NCCCN1CCOCC1)c1ccccc1-c1ccccc1	> 10 µM
CC(C)c1cccc(OC(C)(C)C(=O)N[C@H](Cc2ccccc2)C(=O)NCCCN2CCOCC2)c1	> 1 µM
O=C(Nc1ccc(Sc2ccc(F)cc2)cc1)N[C@@H](Cc1ccccc1)C(=O)NCCCN1CCOCC1	0.13 µM
O=C(Nc1ccc(OCc2cccc(Cl)c2)cc1)N[C@H](Cc1ccccc1)C(=O)NCCCN1CCOCC1	0.63 µM
O=C(Nc1ccc(OCc2cc(F)cc(F)c2)cc1)N[C@H](Cc1ccccc1)C(=O)NCCCN1CCOCC1	> 1 µM
O=C(Nc1ccc(OCc2ccccc2)cc1)N[C@H](Cc1ccccc1)C(=O)NCCCN1CCOCC1 (stereo in doubt; 31b (D))	0.1 µM
CCc1ccc(Oc2ccc(NC(=O)N[C@H](Cc3ccccc3)C(=O)NCCCN3CCOCC3)cc2)cc1	0.63 µM
O=C(NCCCN1CCOCC1)[C@@H](Cc1ccccc1)NC(=O)N1CCC(Cc2ccccc2)CC1	2 µM
O=C(Nc1ccc(Oc2ccc(C(F)(F)F)cc2)cc1)N[C@H](Cc1ccccc1)C(=O)NCCCN1CCOCC1	> 1 µM
CC(C)(Oc1ccc(-c2ccccc2)cc1)C(=O)N[C@@H](Cc1ccccc1)C(=O)NCCCN1CCOCC1	7.9 µM
O=C(NCCCN1CCOCC1)[C@@H](Cc1ccccc1)NC(=O)N1CCN(c2ccccc2)CC1	> 3 µM
O=C(NCCCN1CCOCC1)[C@H](Cc1ccccc1)NC(=O)N1CCC(Cc2ccccc2)CC1	1.6 µM
O=C(Nc1ccc(Oc2ccc(F)cc2)cc1)N[C@H](Cc1ccccc1)C(=O)NCCCN1CCOCC1	> 0.31 µM
CN(C(=O)N[C@H](Cc1ccccc1)C(=O)NCCCN1CCOCC1)c1ccc(Oc2ccccc2)cc1	> 3 µM
CC(C)(Oc1ccc(Cl)cc1)C(=O)N[C@@H](Cc1ccccc1)C(=O)NCCCN1CCOCC1	1.6 µM
O=C(Nc1cccc(Oc2ccccc2)c1)N[C@@H](Cc1ccccc1)C(=O)NCCCN1CCOCC1	0.2 µM
CC(C)(Oc1cccc(-c2ccccc2)c1)C(=O)N[C@@H](Cc1ccccc1)C(=O)NCCCN1CCOCC1	6.3 µM
COc1cc(COc2ccc(NC(=O)N[C@@H](Cc3ccccc3)C(=O)NCCCN3CCOCC3)cc2)cc(OC)c1	0.2 µM
CC(C)(Oc1ccc(C(F)(F)F)cc1)C(=O)N[C@H](Cc1ccccc1)C(=O)NCCCN1CCOCC1	> 1 µM

SMILES	Ki
O=C(Nc1ccccc1)N[C@H](Cc1ccccc1)C(=O)NCCCN1CCOCC1	> 10 µM
O=C(NCCCN1CCOCC1)[C@H](Cc1ccccc1)NC(=O)N1CCN(c2ccccc2)CC1	> 3 µM
CC(C)(Oc1cccc(Cl)c1)C(=O)N[C@@H](Cc1ccccc1)C(=O)NCCCN1CCOCC1	> 1 µM
CN(C(=O)N[C@@H](Cc1ccccc1)C(=O)NCCCN1CCOCC1)c1cccc(Oc2ccccc2)c1	> 3 µM
CC(C)(Nc1ccccc1)C(=O)N[C@@H](Cc1ccccc1)C(=O)NCCCN1CCOCC1	> 3 µM
CC(C)c1cccc(OC(C)(C)C(=O)N[C@@H](Cc2ccccc2)C(=O)NCCCN2CCOCC2)c1	> 1 µM
COc1cc(COc2ccc(NC(=O)N[C@H](Cc3ccccc3)C(=O)NCCCN3CCOCC3)cc2)cc(OC)c1	> 1 µM
CN(C(=O)N[C@@H](Cc1ccccc1)C(=O)NCCCN1CCOCC1)c1cccc(Oc2cccc(F)c2)c1	> 1 µM
O=C(Nc1ccc(Oc2ccc(C(F)(F)F)cc2)cc1)N[C@@H](Cc1ccccc1)C(=O)NCCCN1CCOCC1	0.25 µM
O=C(N[C@H](Cc1ccccc1)C(=O)NCCCN1CCOCC1)c1ccccc1-c1ccccc1	3 µM
O=C(Nc1ccc(OCc2ccccc2)cc1)N[C@H](Cc1ccccc1)C(=O)NCCCN1CCOCC1 (stereo in doubt; 32b (D))	0.63 µM
CC(C)c1ccc(OC(C)(C)C(=O)N[C@@H](Cc2ccccc2)C(=O)NCCCN2CCOCC2)cc1	> 1 µM
O=C(Nc1ccc(Oc2ccc(OC(F)(F)F)cc2)cc1)N[C@H](Cc1ccccc1)C(=O)NCCCN1CCOCC1	> 1 µM
CC(C)(Oc1cccc(-c2ccccc2)c1)C(=O)N[C@H](Cc1ccccc1)C(=O)NCCCN1CCOCC1	10 µM
O=C(N[C@H](Cc1ccccc1)C(=O)NCCCN1CCOCC1)c1cccc(-c2ccccc2)c1	> 10 µM
CC(C)(Oc1cccc(Cl)c1)C(=O)N[C@H](Cc1ccccc1)C(=O)NCCCN1CCOCC1	0.31 µM
O=C(Nc1ccc(Oc2ccc(F)cc2)cc1)N[C@@H](Cc1ccccc1)C(=O)NCCCN1CCOCC1	0.016 µM
O=C(N[C@H](Cc1ccccc1)C(=O)NCCCN1CCOCC1)C(c1ccccc1)c1ccccc1	> 10 µM
CC(C)(Nc1ccccc1Oc1ccccc1)C(=O)N[C@H](Cc1ccccc1)C(=O)NCCCN1CCOCC1	> 3 µM
CC(C)(Oc1ccc(C(F)(F)F)cc1)C(=O)N[C@@H](Cc1ccccc1)C(=O)NCCCN1CCOCC1	> 1 µM
O=C(Nc1ccc(Oc2ccc(OC(F)(F)F)cc2)cc1)N[C@@H](Cc1ccccc1)C(=O)NCCCN1CCOCC1	> 0.1 µM
CCc1ccc(Oc2ccc(NC(=O)N[C@@H](Cc3ccccc3)C(=O)NCCCN3CCOCC3)cc2)cc1	0.2 µM
O=C(Nc1ccc(OCc2ccc(C(F)(F)F)cc2)cc1)N[C@@H](Cc1ccccc1)C(=O)NCCCN1CCOCC1	0.79 µM
Cc1ccc(COc2ccc(NC(=O)N[C@H](Cc3ccccc3)C(=O)NCCCN3CCOCC3)cc2)cc1	> 1 µM
O=C(NCCCN1CCOCC1)[C@@H](Cc1ccccc1)NC(=O)N(c1ccccc1)c1ccccc1	> 3 µM
